The values below come from patent US9040725B2, “Benzocycloheptane and benzoxepine derivatives” (Janssen Pharmaceutica NV, priority 2008, dated 2015).

Counter-ions that a name gives are not always drawn. Like-named read-outs stand apart in the source and are kept apart here.

For orientation: melting point means the temperature of the solid-liquid transition.

The target of one data set is T1, GHS1A-receptor (Homo sapiens, UniProt Q92847).
T1 construct: expressed in transfected cells; host or cells: HEK293
T1 sequence (Q92847 whole entry): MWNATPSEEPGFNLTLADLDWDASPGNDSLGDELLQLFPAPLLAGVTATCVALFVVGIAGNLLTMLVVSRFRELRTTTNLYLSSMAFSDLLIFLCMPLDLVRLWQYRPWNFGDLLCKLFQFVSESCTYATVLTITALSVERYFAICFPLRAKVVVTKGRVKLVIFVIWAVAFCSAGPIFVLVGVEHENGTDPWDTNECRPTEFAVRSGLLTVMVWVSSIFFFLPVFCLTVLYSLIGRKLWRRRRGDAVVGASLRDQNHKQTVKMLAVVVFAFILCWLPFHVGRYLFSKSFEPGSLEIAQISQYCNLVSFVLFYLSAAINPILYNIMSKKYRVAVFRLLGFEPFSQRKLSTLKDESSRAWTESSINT
The experiment in a line: Ghrelin-agonism in HEK293 cells (intracellular calcium, FLIPR). In kind it is cell-based. The conditions noted are these: HEK293 cells permanently transfected with GHS1A-receptor, calcium fluorescence (fluo-4 or Kit-3), EC50 in M, read-out: pEC50 (converted). Here is the method:
One day before the experiment, HEK293 cells, permanently transfected with the gene sequence for expression of the GHS1A-receptor, were seeded in poly-D-Lysine coated 96-well plates with clear bottom, and allowed to grow to […] of confluence on the next day.
Then, cells were incubated with the calcium-sensitive intracellular fluorescent probe fluo-4 or Kit-3 for 1 h at 37° C. Fluorescence representing free intracellular calcium in the cells was measured in a FLIPR-system (excitation at 488 nm, emission>520 nm). Test compounds were added to each well at the desired concentration and the fluorescence signal was simultaneously recorded in all wells. Release of intracellular calcium triggered by activation of the receptors upon addition of the test compound was measured as the fluorescence emitted from the complex of calcium and the fluorescent probe. The drug effect on fluorescence intensity was expressed relative to the maximal fluorescence intensity measured in cells exposed to the calcium-ionophore ionomycin.
(Calcium flux is commonly read through the fluorescence of an indicator in the cells.)

In another data set the test system is NMRI-mice. In words: Acceleration of gastric emptying and small intestinal propulsion in NMRI-mice. The conditions noted are these: Mus musculus, sc, lowest active dose, subcutaneous, 30 min before phenol red test meal. In kind it is in vivo. Here is the method:
Male NMRI-mice weighing around 25 gram were fasted for 20 h and had free access to drinking water. Test compounds were administered to the animals by subcutaneous route 30 min before they were given a test meal by oral gavage. The test meal consisted of 0.3 ml of a chocolate nutridrink solution (1.0 kcal/ml) containing phenol red marker (5 mg/ml). Fifteen min after administration of the meal, the mice were sacrificed by CO2 gas inhalation. The phenol red content remaining in the stomach (extracted from the stomach with NaOH) was determined at 557 nm in a spectrophotometer and expressed as extinction units. Small intestinal propulsion was determined as the distance traveled by the phenol red marker through the intestine and expressed as a percentage of total small intestinal length (from the pylorus to the ileo-cecal junction).
The lowest dose that was active for each parameter was noted as the lowest active dose (LAD). Table 12 discloses LAD values.

Where [1] appears, read: active when >60% of animals had phenol red front beyond 85% of small intestinal length, read-out: LAD (mg/kg) Small intestinal propulsion.
[2] abbreviates: stomach content 15 min after meal, active when >60% of animals below 0.9 extinction units, read-out: LAD (mg/kg) Gastric emptying.

`CCN(CC)CCCC1(O)c2ccccc2CCCC1c1ccc(Cl)cc1` (racemic) (as salt: HCl) [Compound 46] had a melting point of 189.8 °C.

The compound `COc1cccc([C@H]2CCCc3ccccc3[C@]2(O)CCCN(C)C)c1` (racemic) (as salt: oxalate) [Compound 14, (±)cis-5-(3-Dimethylamino-propyl)-6-(3-methoxy-phenyl)-6,7,8,9-tetrahydro-5H-benzocyclohepten-5-ol oxalate] came in with a melting point of 108 °C.

Turning to `CNCCCC1(O)c2ccccc2CCCC1c1ccccc1` (racemic) (as salt: oxalate) [Compound 19], the melting point worked out at 129 °C.

Take `OC1(CCCN2CCCC2)c2ccccc2CCCC1c1ccccc1` (racemic) (as salt: oxalate) [Compound 21]: the melting point was 202 °C.

`CNCCCC1(O)c2ccccc2CCCC1c1cccc(C)c1` (racemic) (as salt: oxalate) [Compound 22] displayed a melting point of 137.4 °C.

Compound `Cc1cccc(C2CCCc3ccccc3C2(O)CCCN2CCOCC2)c1` (racemic) (as salt: oxalate) [Compound 25] returned a melting point of 204.8 °C.

`CNCCCC1(O)c2ccccc2CCCC1c1ccc(C)cc1` (racemic) (as salt: oxalate) [Compound 27] yielded a melting point of 235.8 °C.

`Cc1ccc(C2CCCc3ccccc3C2(O)CCCN(C)C)cc1` (racemic) (as salt: oxalate) [Compound 29] yielded a melting point of 161.8 °C.

`COCCN(C)CCCC1(O)c2ccccc2CCCC1c1ccc(C)cc1` (racemic) (as salt: oxalate) [Compound 30] showed a melting point of 144.9 °C.

Compound `CCN(CC)CCCC1(O)c2ccccc2CCCC1c1ccc(C)cc1` (racemic) (as salt: oxalate) [Compound 31] gave a melting point of 158.6 °C.

As to `Cc1ccc(C2CCCc3ccccc3C2(O)CCCN2CCN(C)CC2)cc1` (racemic) (as salt: oxalate) [Compound 33], the melting point amounted to 219 °C.

As for `COCCN(C)CCCC1(O)c2ccccc2CCCC1c1ccc(O)cc1` (racemic) (as salt: oxalate) [Compound 37], the melting point stood at 191.1 °C.

Consider `CCN(CC)CCCC1(O)c2ccccc2CCCC1c1cccc(Cl)c1` (racemic) (as salt: oxalate) [Compound 41], for which the melting point was 160.3 °C.

As for `OC1(CCCN2CCCC2)c2ccccc2CCCC1c1ccc(Cl)cc1` (racemic) (as salt: oxalate) [Compound 48], the melting point worked out at 236.2 °C.

Take `OC1(CCCN2CCCCC2)c2ccccc2CCCC1c1ccc(Cl)cc1` (racemic) (as salt: oxalate) [Compound 50]: the melting point came out at 201.1 °C.

As to `CC(=O)N1CCN(CCCC2(O)c3ccccc3CCCC2c2ccc(F)cc2F)CC1` (racemic) [Compound 60], the EC50 at GHS1A-receptor is 3980 nM. The figures for the minimal effective dose with NMRI-mice (setting [1]) and in the data set with NMRI-mice (setting [2]) were 10 mg/kg and above 10 mg/kg, respectively.

For `COc1ccc(C2CCCc3ccccc3C2(O)CCCN(C)C)cc1` (racemic) [Compound 66], the EC50 at GHS1A-receptor was 251 nM. The minimal effective dose was 10 mg/kg with NMRI-mice (setting [1]) and above 10 mg/kg in the data set with NMRI-mice (setting [2]).

Regarding `CCN(CC)CCCC1(O)c2ccccc2CCCC1c1ccc(OC)cc1` (racemic) [Compound 67], the EC50 on GHS1A-receptor was 158 nM. Also, the minimal effective dose in the data set on NMRI-mice (setting [1]) and in the data set on NMRI-mice (setting [2]) was above 10 mg/kg throughout.

As for `COc1cc(C2CCCc3ccccc3C2(O)CCCN(C)C)ccc1Cl` (racemic) [Compound 72], at GHS1A-receptor, the EC50 is 10 nM. For the same compound, the minimal effective dose in the data set with NMRI-mice (setting [1]) and in the data set with NMRI-mice (setting [2]) was above 10 mg/kg each time.

For the compound `COc1cc(C2CCCc3ccccc3C2(O)CCCN2CCC(O)C2)ccc1Cl` (racemic) [Compound 73], the EC50 on GHS1A-receptor is 316 nM. For the same compound, the minimal effective dose is 10 mg/kg in the data set on NMRI-mice (setting [1]) and above 10 mg/kg in the data set with NMRI-mice (setting [2]).

On to `CCN(CC)CCCC1(O)c2ccccc2CCCC1c1ccc(Cl)c(OC)c1` (racemic) [Compound 74], for which the EC50 on GHS1A-receptor was 5.01 nM. Besides, the minimal effective dose in the data set with NMRI-mice (setting [1]) and in the data set on NMRI-mice (setting [2]) was above 40 mg/kg each time.

In the case of `CCN(CC)CCCC1(O)c2ccccc2CCCC1c1ccc(OC)c(OC)c1` (racemic) [Compound 78], at GHS1A-receptor, the EC50 is 398 nM. The minimal effective dose in the data set with NMRI-mice (setting [1]) and with NMRI-mice (setting [2]) was above 10 mg/kg throughout.

In the case of `CN(C)CCCC1(O)c2ccccc2CCCC1c1cncc(Cl)c1` (racemic) [Compound 81], the EC50 on GHS1A-receptor is 50.1 nM. The minimal effective dose in the data set with NMRI-mice (setting [1]) and in the data set on NMRI-mice (setting [2]) was above 10 mg/kg in each case.

In the case of `CC(C)NCCCC1(O)c2ccccc2CCCC1c1cncc(Cl)c1` (racemic) [Compound 82], the EC50 on GHS1A-receptor is 251 nM. In addition, the minimal effective dose with NMRI-mice (setting [1]) and in the data set with NMRI-mice (setting [2]) was above 10 mg/kg each time.

Turning to `COc1cncc(C2CCCc3ccccc3C2(O)CCCN(C)C)c1` (racemic) [Compound 83], the EC50 at GHS1A-receptor is 631 nM. In addition, the minimal effective dose with NMRI-mice (setting [1]) and in the data set on NMRI-mice (setting [2]) was above 10 mg/kg in each case.

For `CN(C)CCCC1(O)c2ccccc2CCCC1c1ccc2c(c1)OCO2` (racemic) [Compound 88], the EC50 on GHS1A-receptor is 63.1 nM. In addition, the minimal effective dose with NMRI-mice (setting [1]) and in the data set with NMRI-mice (setting [2]) was above 10 mg/kg throughout.

Consider `CCN(CC)CCCC1(O)c2ccccc2CCCC1c1ccc2c(c1)OCO2` (racemic) [Compound 89], for which the EC50 on GHS1A-receptor is 39.8 nM. In addition, the minimal effective dose with NMRI-mice (setting [1]) and in the data set on NMRI-mice (setting [2]) was above 10 mg/kg each time.

In the case of `Cc1ccc(C2CCOc3ccccc3C2(O)CCCN(C)C)cc1` (racemic) [Compound 92], the EC50 at GHS1A-receptor was 63.1 nM. Further, the minimal effective dose with NMRI-mice (setting [1]) and in the data set with NMRI-mice (setting [2]) was above 10 mg/kg throughout.

Regarding `CCN(CC)CCCC1(O)c2ccccc2OCCC1c1ccc(C)cc1` (racemic) [Compound 93], the EC50 at GHS1A-receptor was 63.1 nM. Also, the results for the minimal effective dose in the data set with NMRI-mice (setting [1]) and in the data set on NMRI-mice (setting [2]) were 10 mg/kg and above 10 mg/kg, respectively.

Regarding `CN(C)CCCC1(O)c2ccccc2OCCC1c1ccc(Cl)cc1` (racemic) [Compound 94], the EC50 at GHS1A-receptor is 31.6 nM. Besides, the minimal effective dose in the data set on NMRI-mice (setting [1]) was 2.5 mg/kg; with NMRI-mice (setting [2]), 10 mg/kg.

With `CN(C)CCCC1(O)c2ccccc2OCCC1c1ccc(F)c(F)c1` (racemic) [Compound 95], the EC50 at GHS1A-receptor is 50.1 nM. In addition, the minimal effective dose with NMRI-mice (setting [1]) and in the data set on NMRI-mice (setting [2]) was above 10 mg/kg throughout.

With `COc1ccccc1C1CCOc2ccccc2C1(O)CCCN(C)C` (racemic) [Compound 96], the EC50 at GHS1A-receptor was 2000 nM. Also, the minimal effective dose with NMRI-mice (setting [1]) and in the data set with NMRI-mice (setting [2]) was above 10 mg/kg each time.

As for `COc1cc(C2CCOc3ccccc3C2(O)CCCN(C)C)ccc1Cl` (racemic) [Compound 97], the EC50 at GHS1A-receptor was 25.1 nM. Further, the minimal effective dose with NMRI-mice (setting [1]) and in the data set with NMRI-mice (setting [2]) was 2.5 mg/kg throughout.

For the compound `CCN(CC)CCCC1(O)c2ccccc2OCCC1c1ccc(Cl)c(OC)c1` (racemic) [Compound 98], the EC50 at GHS1A-receptor was 10 nM. Also, the minimal effective dose in the data set on NMRI-mice (setting [1]) and in the data set with NMRI-mice (setting [2]) was 10 mg/kg throughout.

Take `Cc1ccc(C2CCOc3ccccc3C2(O)CCCN(C)C)cn1` (racemic) [Compound 99]: the EC50 at GHS1A-receptor was 794 nM. For the same compound, the values for the minimal effective dose with NMRI-mice (setting [1]) and in the data set with NMRI-mice (setting [2]) were above 10 mg/kg and 10 mg/kg, respectively.

On to `COc1ccc(C2CCOc3ccccc3C2(O)CCCN(C)C)cn1` (racemic) [Compound 102], for which the EC50 on GHS1A-receptor is 7940 nM. Moreover, the minimal effective dose with NMRI-mice (setting [1]) and with NMRI-mice (setting [2]) was above 10 mg/kg throughout.

Regarding `CN(C)CCCC1(O)c2ccccc2CCCC1c1ccccc1` (racemic) [Compound 106], the EC50 at GHS1A-receptor was 63.1 nM. Moreover, the minimal effective dose with NMRI-mice (setting [1]) and with NMRI-mice (setting [2]) was 10 mg/kg throughout.

In the case of `COCCN(C)CCC[C@@]1(O)c2ccccc2CCC[C@@H]1c1ccc(Cl)cc1` (relative stereo) [Compound 13], the EC50 at GHS1A-receptor is 251 nM. The values for the minimal effective dose in the data set with NMRI-mice (setting [1]) and in the data set with NMRI-mice (setting [2]) were above 10 mg/kg and 10 mg/kg, respectively.

As for `CN(C)CCCC1(O)c2ccccc2CCCC1c1ccccc1` (single isomer, unassigned) [Compound 105], at GHS1A-receptor, the EC50 is 15.8 nM. The minimal effective dose was above 10 mg/kg with NMRI-mice (setting [1]) and 10 mg/kg in the data set on NMRI-mice (setting [2]).

For the compound `CNCCC[C@@]1(O)c2ccccc2OCC[C@@H]1c1ccc(C)cc1` [Compound 11], at GHS1A-receptor, the EC50 was 398 nM. The minimal effective dose with NMRI-mice (setting [1]) and with NMRI-mice (setting [2]) was above 10 mg/kg throughout.

Turning to `Cc1ccc([C@H]2CCCc3ccccc3[C@]2(O)CCCN(C)C)cn1` [Compound 12], the EC50 on GHS1A-receptor was 251 nM. Further, the minimal effective dose with NMRI-mice (setting [1]) and in the data set with NMRI-mice (setting [2]) was above 10 mg/kg in each case.
